Assay results: patent US20230287003A1, “BCL6 INHIBITORS” (Cancer Research Technology Limited, priority 2018, published 2023)

Assays:
[1] = target: human BCL6 BTB domain (Trx-6×His-BCL6) / BCOR-AF633 peptide (Homo sapiens (Human), UniProt P41182); assay: HTRF assay; type: binding; settings: 1 nM Trx-6×His-BCL6, 300 nM BCOR-AF633 peptide, 2 hours incubation
Experimental: The % inhibition at each concentration was calculated by normalising FRET ratio to the appropriate high (DMSO with all reagents) and low (DMSO without BCL6) controls.

[2] = target: endogenous BCL6 protein in SUDHL-4 cells (Homo sapiens (Human), UniProt P41182); assay: Immunofluorescence-based BCL6 degradation assay (SUDHL4); type: cell-based; settings: 2 hours with compound, DC50 = concentration at which 50% of endogenous BCL6 protein is degraded
Experimental: DC50 values (compound concentration at which 50% of endogenous BCL6 protein is degraded) were determined in SUDHL-4 cells (American Type Culture Collection) in an immunofluorescence-based assay using an InCell2200 high content imaging system (GE Healthcare). Briefly, 40 μL of lymphoma suspension cells cultured in RPMI 1640-10% FBS (Sigma-Aldrich or PAN Biotech UK Ltd) were platted on fibronectin (Sigma catalogue F1141)-coated 384 well Cell Carrier Ultra plate (Perkin Elmer catalogue 6057300) at 1.2 104 cells/well. After 20 hours cell culture at 37° C./CO2 incubator, compounds were dispensed in the cell culture plate using ECHO550 acoustic dispenser (Labcyte, Inc.), as 8 point-concentration response (ranging from 5 nM to 10 μM) in 0.67% final DMSO concentration. Cells were incubated with compound for 2 hours at 37° C./CO2 incubator followed by fixation in 4.5% formaldehyde (37% formaldehyde solution, Sigma catalogue F8775) at room temperature for 15 min. After fixing, cells were washed in 1×TBS (Tris Buffer Saline) using a Power Washer 384 (Tecan Group Ltd). Blocking and cell permeabilisation were performed by incubating the fixed cells for 1 hour at room temperature in 1×TBS, 5% BSA, 1% Triton X100, followed by three washes on PW384 plate washer. Primary and secondary antibodies were prepared in 1×TBS, 1% BSA, 0.2% Triton X100. BCL6 expression was detected by incubating the cells for 1 h 30 with BCL6 rabbit polyclonal antibody (Sigma Catalogue HPA004899) at 1:250, 0.8 μg/ml, followed by 1 hour in chicken anti-Rabbit Alexa 488 conjugated antibody (Life Technology) at 1:500. After incubation in each antibody, cells were washes four times in 1×TBS-0.05% tween on PW384 plate washer. Cells were finally incubated for 60 min with nuclear staining RedDot2 dye (Biotium) at 0.5× the stock concentration in 1×TBS. BCL6 expression in the absence or presence of compound was detected on InCell2200 with 20× objective and quantified on InCell Analyser 3.7.2 workstation (GE Healthcare). The % response at each concentration was calculated by normalising BCL6 expression in the presence of compound to the appropriate high (DMSO) and low (DMSO with 7 μM of a control compound (5-((5-chloro-2-((3R,5S)-4,4-difluoro-3,5-dimethylpiperidin-1-yl)pyrimidin-4-yl)amino)-3-(3-hydroxy-3-methylbutyl)-1-methyl-1,3-dihydro-2H-benzo[d]imidazol-2-one)) controls.

[3] = target: BCL6-NCOR2(SMRT) corepressor protein-protein interaction (Homo sapiens (Human), UniProt P41182); assay: NanoBRET cell assay; type: cell-based; settings: read-out: NanoBRET cell avg pIC50 (converted)
From the text: At 20 hr post-transfection, cells were collected, washed with PBS, and exchanged into media containing phenol red-free OptiMEM+4% FBS (Life Technology).

Row | Compound | HTRF avg pIC50 (1 nM) [1] | SUDHL4 avg pDC50 [2] | IC50 [3] [nM] | IC50 ([1]; HTRF avg pIC50 (1 nM)) [nM]
1 | (R)-10-((5-chloro-2-((3R,5S)-3-hydroxy-5- methylpiperidin-1-yl)pyrimidin-4-yl)amino)-2-cyclopropyl-7- methyl-1,2,3,4-tetrahydro-[1,4]oxazepino[2,3-c]quinolin-6(7H)-one or (R)-10-((5-chloro-2-((3S,5R)-3-hydroxy-5-methylpiperidin-1- yl)pyrimidin-4-yl)amino)-2-cyclopropyl-7-methyl-1,2,3,4-tetrahydro- [1,4]oxazepino[2,3-c]quinolin-6(7H)-one: formic acid (1:2) [Example 12c] | 8.01 | 7.83 | – | –
2 | C[C@@H]1CN(c2ncc(Cl)c(Nc3ccc4c(c3)c3c(c(=O)n4C)OCC[C@H](C4CC4)N3)n2)C[C@H](C)C1(F)F [Example 5i, (R)-10-((5-chloro-2-((3S,5R)-4,4-difluoro-3,5-dimethylpiperidin-1-yl)pyrimidin-4-yl)amino)-2-cyclopropyl-7-methyl-1,2,3,4-tetrahydro-[1,4]oxazepino[2,3-c]quinolin-6(7H)-one] | 6.70 | 6.79 | – | –
3 | C[C@@H]1CN(c2ncc(Cl)c(Nc3cnc4c(c3)c3c(c(=O)n4C)OCC[C@H](C4CC4)N3)n2)C[C@H](C)C1(F)F [Example 5t, (R)-10-((5-chloro-2-((3S,5R)-4,4-difluoro-3,5-dimethylpiperidin-1-yl)pyrimidin-4-yl)amino)-2-cyclopropyl-7-methyl-1,2,3,4-tetrahydro-[1,4]oxazepino[2,3-c][1,8]naphthyridin-6(7H)-one] | 6.61 | 6.54 | – | –
4 | O=c1c2c(c3cc(Nc4nc(N5C6CCC5COC6)ncc4Cl)ccc3n1CC1CC(F)(F)C1)N[C@@H](C1CC1)CCO2 [Example 5q, (R)-10-((2-(3-oxa-8-azabicyclo[3.2.1]octan-8-yl)-5-chloropyrimidin-4-yl)amino)-2-cyclopropyl-7-((3,3-difluorocyclobutyl)methyl)-1,2,3,4-tetrahydro-[1,4]oxazepino[2,3-c]quinolin-6(7H)-one] | 7.63 | – | 97.7 | –
5 | Cn1c(=O)c2c(c3cc(Nc4nc(N5C6CC7CC5CC(C6)O7)ncc4Cl)ccc31)N[C@@H](C1CC1)CCO2 [Example 5o, (R)-10-((2-(2-oxa-6-azaadamantan-6-yl)-5-chloropyrimidin-4-yl)amino)-2-cyclopropyl-7-methyl-1,2,3,4-tetrahydro-[1,4]oxazepino[2,3-c]quinolin-6(7H)-one] | 7.64 | – | 89.1 | –
6 | Cn1c(=O)c2c(c3cc(Nc4nc(N5C6COCC5CC(O)C6)ncc4Cl)cnc31)N[C@@H](C1CC1)CCO2 (stereo partly drawn) [Example 11b, (R)-10-((5-chloro-2-((1R,5S,7S)-7-hydroxy-3-oxa-9-azabicyclo[3.3.1]nonan-9-yl)pyrimidin-4-yl)amino)-2-cyclopropyl-7-methyl-1,2,3,4-tetrahydro-[1,4]oxazepino[2,3-c][1,8]naphthyridin-6(7H)-one] | 8.16 | – | 32.4 | –
7 | C[C@@H]1CN(c2ncc(Cl)c(Nc3ccc4[nH]c(=O)c5c(c4c3)N[C@@H](C3CC3)CCO5)n2)C[C@H](C)C1(F)F [Example 5p, (R)-10-((5-chloro-2-((3S,5R)-4,4-difluoro-3,5-dimethylpiperidin-1-yl)pyrimidin-4-yl)amino)-2-cyclopropyl-1,2,3,4-tetrahydro-[1,4]oxazepino[2,3-c]quinolin-6(7H)-one] | 6.24 | 6.87 | – | –
8 | Cn1c(=O)c2c(c3cc(Nc4nc(N5CCC(F)(F)CC5)ncc4Cl)ccc31)N[C@@H](C1CC1)CCO2 [Example 5m, (R)-10-((5-chloro-2-(4,4-difluoropiperidin-1-yl)pyrimidin-4-yl)amino)-2-cyclopropyl-7-methyl-1,2,3,4-tetrahydro-[1,4]oxazepino[2,3-c]quinolin-6(7H)-one] | 6.93 | 6.84 | – | –
9 | CN(C)C(=O)C1CCN(c2ncc(Cl)c(Nc3ccc4c(c3)c3c(c(=O)n4C)C(=O)OC[C@H](C4CC4)N3)n2)CC1 [Example 8m, (S)-1-(5-chloro-4-((2-cyclopropyl-7-methyl-5,6-dioxo-1,2,3,5,6,7-hexahydro-[1,4]oxazepino[6,5-c]quinolin-10-yl)amino)pyrimidin-2-yl)-N,N-dimethylpiperidine-4-carboxamide] | 6.28 | – | 31600 | –
10 | Cn1c(=O)c2c(c3cc(Nc4nc(N5C6CCC5COC6)ncc4Cl)ccc31)N[C@@H](C1CC1)C(F)(F)CO2 [Example 12v, (S)-10-((2-(3-oxa-8-azabicyclo[3.2.1]octan-8-yl)-5-chloropyrimidin-4-yl)amino)-2-cyclopropyl-3,3-difluoro-7-methyl-1,2,3,4-tetrahydro-[1,4]oxazepino[2,3-c]quinolin-6(7H)-one] | 8.86 | – | 8.32 | –
11 | Cn1c(=O)c2c(c3cc(Nc4nc(N5CC6CCC(C5)O6)ncc4Cl)ccc31)N[C@@H](C1CC1)CCO2 [Example 12g, (R)-10-((2-(8-oxa-3-azabicyclo[3.2.1]octan-3-yl)-5-chloropyrimidin-4-yl)amino)-2-cyclopropyl-7-methyl-1,2,3,4-tetrahydro-[1,4]oxazepino[2,3-c]quinolin-6(7H)-one] | 7.54 | – | 776 | –
12 | C[C@H]1CCOc2c(c3cc(Nc4nc(N5CCOCC5)ncc4Cl)ccc3n(C)c2=O)N1 [Example 5h, (S)-10-((5-chloro-2-morpholinopyrimidin-4-yl)amino)-2,7-dimethyl-1,2,3,4-tetrahydro-[1,4]oxazepino[2,3-c]quinolin-6(7H)-one] | 7.01 | – | 1740 | –
13 | CC1Nc2c(c(=O)n(C)c3ccc(Nc4nc(N5C[C@H](C)C[C@H](C)C5)ncc4Cl)cc23)C(=O)OC1C (mixture of isomers) [Example 8p, rac-(2S,3R)-10-((5-chloro-2-((3S,5R)-3,5-dimethylpiperidin-1-yl)pyrimidin-4-yl)amino)-2,3,7-trimethyl-2,3-dihydro-[1,4]oxazepino[6,5-c]quinoline-5,6(1H,7H)-dione or rac-(2S,3S)-10-((5-chloro-2-((3S,5R)-3,5-dimethylpiperidin-1-yl)pyrimidin-4-yl)amino)-2,3,7-trimethyl-2,3-dihydro-[1,4]oxazepino[6,5-c]quinoline-5,6(1H,7H)-dione] | – | – | 25700 | 275
14 | C[C@H]1COC(=O)c2c(c3cc(Nc4nc(N5C6CCCC5CC6)ncc4Cl)ccc3n(C)c2=O)N1 [Example 8b, (2S)-10-((2-(8-azabicyclo[3.2.1]octan-8-yl)-5-chloropyrimidin-4-yl)amino)-2,7-dimethyl-2,3-dihydro-[1,4]oxazepino[6,5-c]quinoline-5,6(1H,7H)-dione] | 6.85 | – | 2190 | –
15 | Cn1c(=O)c2c(c3cc(Nc4nc(N5C6CCC5CS(=O)(=O)C6)ncc4Cl)ccc31)N[C@@H](C1CC1)CCO2 [Example 12j, (R)-10-((5-chloro-2-(3,3-dioxido-3-thia-8-azabicyclo[3.2.1]octan-8-yl)pyrimidin-4-yl)amino)-2-cyclopropyl-7-methyl-1,2,3,4-tetrahydro-[1,4]oxazepino[2,3-c]quinolin-6(7H)-one] | 7.78 | – | 234 | –
16 | Cn1c(=O)c2c(c3cc(Nc4nc(N5CCC(F)(F)CC5)ncc4Cl)cnc31)N[C@@H](C1CC1)CCO2 [Example 5s, (R)-10-((5-chloro-2-(4,4-difluoropiperidin-1-yl)pyrimidin-4-yl)amino)-2-cyclopropyl-7-methyl-1,2,3,4-tetrahydro-[1,4]oxazepino[2,3-c][1,8]naphthyridin-6(7H)-one] | 7.13 | – | 234 | –
17 | C[C@@H]1CN(c2ncc(Cl)c(Nc3ccc4c(c3)c3c(c(=O)n4C)C(=O)OC[C@H](C)N3)n2)C[C@H](C)O1 [Example 8a, (S)-10-((5-chloro-2-((2S,6R)-2,6-dimethylmorpholino)pyrimidin-4-yl)amino)-2,7-dimethyl-2,3-dihydro-[1,4]oxazepino[6,5-c]quinoline-5,6(1H,7H)-dione] | 6.97 | – | 9550 | –
